Results as given in US20120148647A1, “Photoresponsive Sunscreen Composition” (Blueshift Pharma GmbH, priority 2009, published 2012).
Where two headings read alike, the source gives them in different places.

Key:
[1] = Predicted SPF calculated from absorption spectra; assay type: physicochemical
Source text: Predicted SPFs can be accurately determined from absorption spectra using standardized calculations based on the erythemal action spectrum, and such predicted SPFs correlate very well with in vivo determined SPFs. Corresponding algorithms for calculating SPF values are known in the art and corresponding computer programs are available; see, for example, http://www.sunscreensimulator.basf.com/Sunscreen_Simulator. Using the absorption spectrum shown in FIG. 2, the predicted SPF of a composition containing the deprotonated form of Padimate-O is approximately 10-fold higher than that of a composition containing the protonated form. With Benzophenone-4 (FIG. 1), the protonated form provides a composition having approximately 3 times the SPF as a composition containing the deprotonated form.

[2] = UV absorbance spectra in protonated and deprotonated form (different pH, or before and after HCl); assay type: physicochemical; settings: FIGS. 1 to 4
Source text: Methods to determine if a given sunscreen agent measurably changes its absorbance of UV radiation upon protonation or deprotonation will be readily available to the skilled person, but include a method summarised by the following steps. First, identify a suitable solvent for said sunscreen agent. Such a solvent may be hydrophilic (eg water or glycerine) organic/protic (eg ethanol, isopropanol or octanol), organic/polar aprotic (eg DMSO, acetonitrile or dichloromethane) or organic/unipolar (eg hexane, hexadecane or diethylether). Second, record the UV-Visible (200 nm-800 nm) absorbance spectra of a solution of the sunscreen agent using a suitable photospectrometer (such as a Beckmann DU-640 Spectrometer as described in the examples herein). Third, take an aliquot of the sunscreen UV filter solution and add a strong acid (eg trifluoroacetic acid, or hydrochloric acid, or perchloric acid) and record its UV-Visible absorbance spectra. Neutralize with a base (see next step) to check for reversibility and record the UV-Visible absorbance spectra again. Fourth, take another aliquot of the sunscreen UV filter solution and add a strong base (eg NaOH, KOH, Triethylamine, Tris(hydroxymethyl)aminomethane (TRIS)) and record its UV-Visible absorbance spectra. Neutralize with an acid (see previous step) to check for reversibility and record the resulting UV-Visible absorbance spectra. Fifth, repeat the above steps with (a) more than one acid, (b) more than one base and (c) more than one solvent to exclude artifacts from specific UV-filter-ion interactions, or specific UV-filter-solvent interactions. Conclusion: measureable changes in UV absorbance that are observed in one or more of such repeat experiments for a give sunscreen agent identify that such sunscreen agent is a suitable sunscreen agent for use in the context of the present invention.
The pH was adjusted with NaOH/HCl in aqueous solution.

[3] = cited from earlier work
[4] = excited state after light absorption; cited from earlier work

COc1cc(O)c(C(=O)c2ccccc2)cc1S(=O)(=O)O [Benzophenone-4]
SPF of composition with protonated form relative to deprotonated form ([1]; from absorption spectra of FIG. 1 (ethanol/water, pH 5 to 12)): approximately 3 times | effect of protonation state on UV absorption [2]: protonated state being the from that absorbs more UVB radiation

COc1ccc(C(=O)c2ccccc2)c(O)c1 [oxybenzone]
oxybenzone degraded ([3]; irradiation of oxybenzone and titanium dioxide, after 20 min of UV exposure): about 70% | oxybenzone degraded ([3]; solution containing oxybenzone alone, after 260 min): 50%

CCCCCCOC(=O)c1ccccc1C(=O)c1ccc(N(CC)CC)cc1O [2-(4-diethylamino-2-hydroxybenzoyl)-benzoic acid hexylester]
effect of protonation state on UV absorption [2]: largely inactive in its protonated form

Nc1ccc(C(=O)O)cc1 [PABA, p-aminobenzoic acid]
effect of protonation state on UV absorption [2]: absorbs less UV radiation

Oc1cccc2ccccc12 [Example 1-naphthol, 1-naphthol]
pKa in the excited state [4]: 0.4

CCCCC(CC)COC(=O)c1ccc(N(C)C)cc1 (stereo not drawn) [Padimate-O, Ethylhexyl Dimethyl PABA]
predicted SPF of composition with deprotonated form relative to protonated form ([1]; from absorption spectrum of FIG. 2 (acetonitrile, before/after equimolar HCl)): approximately 10 fold | effect of protonation state on UV absorption [2]: shifts the absorption maximum of padimate-O from the UVB region to UVC
